We go through four molecules from paper PMC8791477, “Evaluation of SARS-CoV-2 entry, inflammation and new therapeutics in human lung tissue cells” (PLoS Pathogens, 2022).

Data set [1] in a line: in vitro. The conditions noted are these: human, CC50 HLT.
Another data set relates to thrombin. The conditions noted are these: cited from earlier work.
The nature of data set [2]: in vitro. The conditions noted are these: African green monkey.
Data set [3] has as its system DNA-dependent DNA polymerases of some DNA viruses. The conditions noted are these: cited from earlier work.
In the next data set the test system is HLT cells. The conditions noted are these: up to 100μM.
Data set [4] concerns SARS-CoV-2 clinical isolate. It is filed as cell-based.
In another data set the test system is VeroE6 cells. The conditions noted are these: up to 100μM.
The test system of the next data set is COVID-19 patients. The conditions noted are these: cited from earlier work.
The subject of data set [5] is IL-6 and CXCL10 expression. Description: Immunomodulatory capacity: IL-6 and CXCL10 in LPS + IFN-γ stimulated HLT myeloid cells. It is filed as cell-based, human. The conditions noted are these: 20μM, LPS 50 ng/ml + IFN-γ 100 ng/ml, 20h. As for the experimental part: HLT cells were cultured in a round-bottom 96-well plate containing 20 μM of cepharanthine, ergoloid, ciclesonide, hydroxychloroquine, ivermectin, or camostat mesylate alone or in combination with the stimuli LPS (50 ng/ml) and IFN-γ (100 ng/ml). For each patient, a negative control, cells treated with only medium, and a positive control, cells incubated in the presence of LPS and IFN-γ, were included. Immediately, brefeldin A (BD Biosciences) and monensin (BD Biosciences) were added to cells and cultured overnight at 37°C in 5% CO2. Next day, cellular suspensions were stained with the following antibodies: anti-CD11b (FITC, BioLegend), anti-CD69 (PE-CF594, BD Biosciences), anti-CD14 (APC-H7, BD Biosciences), anti-EpCAM (APC, BioLegend), anti-CD3 (BV650, BD Biosciences), anti-CD45 (BV605, BioLegend), and anti-HLA-DR (BV421, BioLegend). Cells were subsequently fixed and permeabilized using the Cytofix/Cytoperm kit (BD Biosciences) and intracellularly stained with anti-IL-6 (PE-Cy7, BioLegend), and anti-CXCL10 (PE, BioLegend). Cell viability was determined using an AQUA viability dye for flow cytometry (LIVE/DEAD fixable AQUA, Invitrogen). After fixation with PBS 2% PFA, cells were acquired in an LSR Fortessa (BD Biosciences), and data were analyzed using the FlowJo v10.6.1 software (TreeStar).

A further data set deals with SARS-CoV-2. The conditions noted are these: cited from earlier work.
The mark [6] stands for this setting: 10µM, ref Hempel et al., Chemical Science 2021.

Where a name gives a salt, the structure may show the parent alone.

What is called IC50 is the concentration that inhibits the measured activity by half. `O=c1c(O)c(-c2cc(O)c(O)c(O)c2)oc2cc(O)cc(O)c12` [Myricetin]: the CC50 was more than 100 µM in “in vitro [1]” (absence of virus) and more than 100 µM in the data set “in vitro [2]” (CC50 Vero E6, absence of virus). In addition, the half-maximal inhibitory concentration (IC50) with thrombin is 56 µM.

As to `Nc1ncnc2c1ncn2[C@@H]1O[C@H](CO)[C@@H](O)[C@@H]1O` [Vidarabine], the CC50 in “in vitro [1]” (absence of virus) was more than 100 µM; in the data set “in vitro [2]” (CC50 Vero E6, absence of virus), more than 100 µM. For the same molecule, the “inhibition of viral DNA polymerases relative to those of host cells” value in data set [3] is recorded as “Purine nucleoside analogue ^80. Competitively inhibits DNA-dependent DNA polymerases of some DNA viruses approximately 40 times more than those of host cells ^80”.

As to `CCN(CCO)CCCC(C)Nc1ccnc2cc(Cl)ccc12` (stereo not drawn) [Hydroxychloroquine], the “cytotoxicity in HLT (in words)” value in the data set on HLT cells was “no apparent cytotoxicity”. For the same molecule, the CC50 in the data set “in vitro [1]” (absence of virus) was more than 100 µM; in “in vitro [2]” (CC50 Vero E6, absence of virus) it was more than 100 µM. For the same molecule, in [4], the “viral replication of replication-competent SARS-CoV-2 in HLT cells (in words)” value was “effective”. Further, the “cytotoxicity in VeroE6 (in words)” value in the data set on VeroE6 cells is recorded as “no apparent cytotoxicity”. The “effectiveness as a treatment for COVID-19 (in words)” value in the data set with COVID-19 patients (clinical trials) is given as “failed to show effectiveness”.

Consider `CN(C)C(=O)COC(=O)Cc1ccc(OC(=O)c2ccc(NC(=N)N)cc2)cc1` [Camostat, Camostat mesylate], for which, in data set [5], the “expression of CXCL10 in CD11b+CD14- myeloid cells (in words)” value was “significantly reduced” and the “expression of IL-6 in CD11b+CD14+ myeloid cells (in words)” value was “significantly reduced”. Besides, in the data set with SARS-CoV-2 (0.5µM, ref Hoffmann et al, EBiomedicine 2021), the “activity in precision-cut lung slices (in words)” value is reported as “non-active”. Further, in the data set with SARS-CoV-2 (setting [6]), the “inhibition, donor 1” value is on record as 40% and the “inhibition, donor 2” value was 60%. Also, in the data set on SARS-CoV-2 (10µM, ref Hoffmann et al, EBiomedicine 2021), the “inhibition in precision-cut lung slices” value is “approx. 40%”. This molecule came in with a CC50 in the data set “in vitro [1]” of more than 100 µM. Moreover, the CC50 in the data set “in vitro [2]” (CC50 Vero E6) is more than 100 µM. For the same molecule, the “clinical benefit (in words)” value in the data set on COVID-19 patients (COVID-19 patients receiving camostat within the first 48h of admission) was “no significant benefit”.
